According to ChEMBL document CHEMBL5233240, “hERG toxicity assessment: Useful guidelines for drug design” (Eur J Med Chem, 2020):

Biological target: Voltage-gated inwardly rectifying potassium channel KCNH2 (Homo sapiens, UniProt Q12809)
Test: Inhibition of human ERG
Type: toxicity

Voltage-gated inwardly rectifying potassium channel KCNH2, sequence (Q12809 whole entry): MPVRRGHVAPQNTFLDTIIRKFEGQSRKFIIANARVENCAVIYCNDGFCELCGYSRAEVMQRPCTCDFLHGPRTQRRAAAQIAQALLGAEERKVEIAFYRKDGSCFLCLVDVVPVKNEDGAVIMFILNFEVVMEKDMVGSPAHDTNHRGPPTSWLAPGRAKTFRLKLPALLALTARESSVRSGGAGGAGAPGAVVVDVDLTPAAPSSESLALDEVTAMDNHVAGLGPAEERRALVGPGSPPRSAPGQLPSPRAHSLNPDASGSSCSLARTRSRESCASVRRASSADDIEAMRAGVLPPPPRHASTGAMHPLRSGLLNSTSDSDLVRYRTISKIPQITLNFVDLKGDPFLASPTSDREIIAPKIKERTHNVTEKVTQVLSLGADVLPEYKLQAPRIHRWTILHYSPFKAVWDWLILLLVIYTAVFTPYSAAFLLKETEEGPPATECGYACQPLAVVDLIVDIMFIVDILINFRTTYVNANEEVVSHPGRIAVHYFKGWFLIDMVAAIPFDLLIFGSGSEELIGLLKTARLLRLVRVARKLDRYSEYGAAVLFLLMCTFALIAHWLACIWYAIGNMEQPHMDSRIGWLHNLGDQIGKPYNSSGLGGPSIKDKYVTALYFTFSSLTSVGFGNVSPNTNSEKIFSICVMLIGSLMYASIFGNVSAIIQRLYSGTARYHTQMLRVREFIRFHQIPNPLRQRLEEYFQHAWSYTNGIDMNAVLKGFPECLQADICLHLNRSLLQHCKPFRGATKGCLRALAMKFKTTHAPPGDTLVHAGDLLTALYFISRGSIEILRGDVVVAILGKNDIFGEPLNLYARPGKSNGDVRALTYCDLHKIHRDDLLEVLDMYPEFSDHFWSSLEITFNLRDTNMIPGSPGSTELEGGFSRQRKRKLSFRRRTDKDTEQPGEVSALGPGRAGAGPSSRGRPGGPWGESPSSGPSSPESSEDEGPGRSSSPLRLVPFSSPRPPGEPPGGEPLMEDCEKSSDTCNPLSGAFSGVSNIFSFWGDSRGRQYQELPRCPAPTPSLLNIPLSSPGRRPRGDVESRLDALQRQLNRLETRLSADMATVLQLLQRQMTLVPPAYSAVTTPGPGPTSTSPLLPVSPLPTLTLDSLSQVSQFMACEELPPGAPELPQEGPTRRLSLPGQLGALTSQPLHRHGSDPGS

Structure (SMILES) | IC50
N#Cc1ccc(Cn2cncc2CC[C@H]2CCN(Cc3cccc(Cl)c3)C2=O)cc1 | 0.44 µM
N#Cc1ccc2cc1Oc1ccc3c(c1)[C@@H](CCC3)N1CC[C@H](C1)NCc1cncn1-2 | 7 µM
